Source: ChEMBL document CHEMBL1151558, “An efficient synthesis and biological activities of 19-nor-17-hydroxy-17-trifluoromethyl-4-estren-3-one and its analogs” (Bioorg Med Chem Lett, 1995)

Assays:
[1] = biological target: T1, Progesterone receptor (Rattus norvegicus) (UniProt Q63449); assay: Binding affinity for cytosolic progesterone receptor (PRc) of rat uterus compared to RU-486
T1 sequence (whole entry): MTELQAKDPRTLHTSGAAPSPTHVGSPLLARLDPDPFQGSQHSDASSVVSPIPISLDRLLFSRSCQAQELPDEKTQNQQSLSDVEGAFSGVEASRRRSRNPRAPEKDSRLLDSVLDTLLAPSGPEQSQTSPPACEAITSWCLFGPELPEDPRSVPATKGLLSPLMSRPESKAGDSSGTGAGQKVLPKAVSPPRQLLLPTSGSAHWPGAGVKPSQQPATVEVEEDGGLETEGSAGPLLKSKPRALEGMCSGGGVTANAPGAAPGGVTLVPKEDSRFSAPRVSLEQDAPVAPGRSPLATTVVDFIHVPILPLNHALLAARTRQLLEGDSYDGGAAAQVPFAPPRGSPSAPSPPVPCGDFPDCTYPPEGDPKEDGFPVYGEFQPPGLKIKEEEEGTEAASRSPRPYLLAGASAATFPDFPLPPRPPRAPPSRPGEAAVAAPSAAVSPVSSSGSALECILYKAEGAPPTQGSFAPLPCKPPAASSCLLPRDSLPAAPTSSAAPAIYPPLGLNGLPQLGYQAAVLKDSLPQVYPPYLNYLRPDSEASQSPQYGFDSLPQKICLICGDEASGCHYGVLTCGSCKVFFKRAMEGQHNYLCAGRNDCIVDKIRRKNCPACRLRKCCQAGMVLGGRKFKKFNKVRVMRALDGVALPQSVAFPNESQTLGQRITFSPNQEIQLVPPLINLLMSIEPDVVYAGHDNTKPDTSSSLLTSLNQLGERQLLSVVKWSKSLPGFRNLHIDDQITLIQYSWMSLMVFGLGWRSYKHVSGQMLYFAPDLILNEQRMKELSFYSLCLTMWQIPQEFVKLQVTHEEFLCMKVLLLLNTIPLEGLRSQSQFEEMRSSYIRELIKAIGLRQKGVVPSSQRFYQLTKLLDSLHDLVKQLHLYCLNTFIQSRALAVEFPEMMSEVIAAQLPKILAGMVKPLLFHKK

Progesterone receptor = biological target: T2, Progesterone receptor (Rattus norvegicus, UniProt Q63449); assay: Inhibition of [3H]R5020 binding to cytosolic progesterone receptor (PRc) of rat uterus
T2 sequence (Q63449 whole entry): T1 sequence (whole entry)

Structure (SMILES) | relative binding affinity (RBA) [1] | IC50 (Progesterone receptor)
CC#C[C@]1(O)CC[C@H]2[C@@H]3CCC4=CC(=O)CCC4=C3[C@@H](c3ccc(N(C)C)cc3)C[C@@]21C | 100 | 
C[C@]12CCC3=C4CCC(=O)C=C4CCC3C1CC[C@@]2(O)C(F)(F)F (some centres not stated) | 77.8 | 4.5 nM
C[C@]12CCC3C(CCC4=CC(=O)CC[C@@H]43)C1CC[C@@]2(O)C(F)(F)F (some centres not stated) | 292 | 1.2 nM
C[C@]12C=CC3=C4CCC(=O)C=C4CCC3C1CC[C@@]2(O)C(F)(F)F (some centres not stated) | 38.9 | 9 nM
